One data set can be described thus: log P by HPLC. Type of data set: physicochemical. The conditions noted are these: HPLC, gradient method, acetonitrile/0.1% aqueous phosphoric acid; EEC directive 79/831 Annex V. A8.
Another data set deals with Puccinia recondita. Nature of the data set: Puccinia test (wheat)/protective. Type of data set: in vivo. The note with it: protective, application rate 500 g/ha, evaluation 10 days after inoculation. As for the experimental part: Puccinia Test (Wheat)/Protective • Solvent: 25 parts by weight of N,N-dimethylacetamide • Emulsifier: 0.6 part by weight of alkylaryl polyglycol ether To produce a suitable preparation of active compound, 1 part by weight of active compound is mixed with the stated amounts of solvent and emulsifier and the concentrate is diluted with water to the desired concentration. To test for protective activity, the young plants are sprayed with the active compound preparation at the application rate indicated. After the spray coating has dried on, the plants are sprayed with a conidia suspension of Puccinia recondita. The plants spend 48 hours at 20° C. and 100% relative humidity in an incubation cabin. The plants are then placed in a greenhouse at a temperature of about 20° C. and a relative humidity of 80% in order to promote the development of rust pustules. Evaluation is made 10 days after inoculation. 0% denotes an efficacy corresponding to that of the control, while an efficacy of 100% denotes that no infestation is observed.

Another data set deals with Sphaerotheca fuliginea. Nature of the data set: Spaerotheca test (cucumber)/protective. The note with it: protective, application rate 750 g/ha, evaluation 7 days after inoculation. It is filed as in vivo. The method, then: Spaerotheca Test (Cucumber)/Protective • Solvent: 49 parts by weight of N,N-dimethylformamide • Emulsifier: 1 part by weight of alkylaryl polyglycol ether To produce a suitable preparation of active compound, 1 part by weight of active compound is mixed with the stated amounts of solvent and emulsifier and the concentrate is diluted with water to the desired concentration. To test for protective activity, the young cucumber plants are sprayed with the active compound preparation at the application rate indicated. 1 day after treatment, the plants are inoculated with a spore suspension of Sphaerotheca fuliginea. The plants are then placed in a greenhouse at a temperature of 23° C. and at a relative humidity of 70%. Evaluation is made 7 days after inoculation. 0% denotes an efficacy corresponding to that of the control, while an efficacy of 100% denotes that no infestation is observed.

Another data set concerns Podosphaera leucotricha. The data set is described as follows: Podosphaera test (apple)/protective. It is filed as in vivo. The note with it: protective, application rate 100 g/ha, evaluation 10 days after inoculation. As for the experimental part: Podosphaera Test (Apple)/Protective • Solvent: 24.5 parts by weight of acetone • 24.5 parts by weight of dimethylacetamide • Emulsifier: 1 part by weight of alkylaryl polyglycol ether
To produce a suitable preparation of active compound, 1 part by weight of active compound is mixed with the stated amounts of solvent and emulsifier and the concentrate is diluted with water to the desired concentration.
To test for protective activity, the young plants are sprayed with the active compound preparation at the application rate indicated. After the spray coating has dried on, the plants are inoculated with an aqueous spore suspension of the apple mildew causative organism Podosphaera leucotricha. The plants are then placed in a greenhouse at about 23° C. and at a relative humidity of about 70%.
Evaluation is made 10 days after inoculation. 0% denotes an efficacy corresponding to that of the control, while an efficacy of 100% denotes that no infestation is observed.

Each structure is given as a SMILES string.

With `C[C@H](Nc1c(-c2c(F)cc(F)cc2F)c(Cl)nc2nc(C(F)(F)F)nn12)C(F)(F)F` [Example 3], the chromatographic logP in the data set “log P by HPLC” was 3.94. In addition, the Efficacy in % with Puccinia recondita was found to be 100%; with Sphaerotheca fuliginea, 93%. In the data set “log P by HPLC”, `CCc1nc2nc(Cl)c(-c3c(F)cc(F)cc3F)c(N[C@@H](C)C(F)(F)F)n2n1` [Example 4] returned a chromatographic logP of 3.39. This molecule also yielded an Efficacy in % in the data set with Sphaerotheca fuliginea of 93%. `Fc1cc(F)c(-c2c(Cl)nc3nc(C(F)(F)F)nn3c2NCCC(F)(F)F)c(F)c1` [Example 7]: the Efficacy in % with Podosphaera leucotricha and in the data set on Sphaerotheca fuliginea was 100% in each case. Further, the chromatographic logP in “log P by HPLC” was 3.76. Turning to `Fc1cc(F)c(-c2c(Cl)nc3nc(C(F)(F)F)nn3c2NCC(F)(F)F)c(F)c1` [Example 8], the Efficacy in % in the data set with Podosphaera leucotricha and in the data set with Sphaerotheca fuliginea was 100% throughout. Further, the chromatographic logP in the data set “log P by HPLC” was determined as 3.64. In the data set “log P by HPLC”, `CC1CC(C)CN(c2c(-c3ccc(F)cc3F)c(Cl)nc3nc(C(F)(F)F)nn23)C1` (stereo not drawn) [compound 797] gave a logP of 5.18. The same measure, in the same setting: next, `CC1CCN(c2c(-c3ccc(F)cc3F)c(Cl)nc3nc(C(F)(F)F)nn23)CC1` [compound 798]: 4.8; `OC1CCCN(c2c(-c3ccc(F)cc3F)c(Cl)nc3nc(C(F)(F)F)nn23)C1` (stereo not drawn) [compound 799]: 3.07. Still for that read-out and setting: next, `CC1(C)CCN(c2c(-c3ccc(F)cc3F)c(Cl)nc3nc(C(F)(F)F)nn23)CC1` [compound 800]: 5.03; `CCC1=CCN(c2c(-c3ccc(F)cc3F)c(Cl)nc3nc(C(F)(F)F)nn23)CC1` [compound 801]: 4.95. With `CC1=CCCN(c2c(-c3ccc(F)cc3F)c(Cl)nc3nc(C(F)(F)F)nn23)C1` [compound 802], the logP in “log P by HPLC” is listed as 4.55. With `COC(=O)C1CCN(c2c(-c3ccc(F)cc3F)c(Cl)nc3nc(C(F)(F)F)nn23)CC1` [compound 803], in the data set “log P by HPLC”, the logP turned out to be 3.81. On the same count and under the same terms, next, `COC(=O)C1CCCCN1c1c(-c2ccc(F)cc2F)c(Cl)nc2nc(C(F)(F)F)nn12` (stereo not drawn) [compound 804]: 4.32; `Fc1ccc(-c2c(Cl)nc3nc(C(F)(F)F)nn3c2N2CCC(C(F)(F)F)CC2)c(F)c1` [compound 805]: 4.43. `CC(=O)NC1CCN(c2c(-c3ccc(F)cc3F)c(Cl)nc3nc(C(F)(F)F)nn23)CC1` [compound 806] came in with a logP in “log P by HPLC” of 2.71. On the same count and under the same terms, next, `CN1CCN(c2c(-c3ccc(F)cc3F)c(Cl)nc3nc(C(F)(F)F)nn23)CC1` [compound 807]: 1.65; `CC1CN(c2c(-c3ccc(F)cc3F)c(Cl)nc3nc(C(F)(F)F)nn23)CC(C)O1` (stereo not drawn) [compound 808]: 4.1. `Fc1ccc(-c2c(Cl)nc3nc(C(F)(F)F)nn3c2N2CCCCC2)c(F)c1` [compound 809] registered a logP in “log P by HPLC” of 4.45. `Fc1ccc(-c2c(Cl)nc3nc(C(F)(F)F)nn3c2N2CCSCC2)c(F)c1` [compound 810]: the logP in the data set “log P by HPLC” amounted to 4.04. Still for that read-out and setting: next, `Cc1ccccc1Nc1c(-c2ccc(F)cc2F)c(Cl)nc2nc(C(F)(F)F)nn12` [compound 811]: 3.99; `Cc1cccc(Nc2c(-c3ccc(F)cc3F)c(Cl)nc3nc(C(F)(F)F)nn23)c1` [compound 812]: 4.04. The same measure, in the same setting: next, `Cc1ccc(Nc2c(-c3ccc(F)cc3F)c(Cl)nc3nc(C(F)(F)F)nn23)cc1` [compound 813]: 4.08; `Fc1ccc(Nc2c(-c3ccc(F)cc3F)c(Cl)nc3nc(C(F)(F)F)nn23)cc1` [compound 814]: 3.69; `Fc1ccc(-c2c(Cl)nc3nc(C(F)(F)F)nn3c2N2CCc3ccccc3C2)c(F)c1` [compound 815]: 4.35. Turning to `Cc1nc2nc(Cl)c(-c3ccc(Cl)cc3Cl)c(N(N)CC(C)C)n2n1` [compound 816], the log partition coefficient (logP) in “log P by HPLC” came out at 3.71. Consider `Cc1nc2nc(Cl)c(-c3ccc(Cl)cc3Cl)c(N3CCCCO3)n2n1` [compound 817], for which the logP in “log P by HPLC” is 3.67. On to `CC(C)CC(C)Nc1c(-c2ccc(F)cc2F)c(Cl)nc2nc(C(F)(F)F)nn12` (stereo not drawn) [compound 818], for which, in “log P by HPLC”, the logP was 4.73.

Values taken from patent US7186831B2, “5-halo-2-alkyl[1,2,4]triazolo[1,5-a]pyrimidin-7-amines” (priority 2001, dated 2007).
